Target: T1, human B2 bradykinin receptors (CHO-hB2 cell membranes) (Homo sapiens, UniProt P30411)
T1 construct: purchased Receptor Biology, Inc. (Baltimore, Md.); host or cells: CHO-hB2 cells (membranes)
T1 sequence (P30411 1-391): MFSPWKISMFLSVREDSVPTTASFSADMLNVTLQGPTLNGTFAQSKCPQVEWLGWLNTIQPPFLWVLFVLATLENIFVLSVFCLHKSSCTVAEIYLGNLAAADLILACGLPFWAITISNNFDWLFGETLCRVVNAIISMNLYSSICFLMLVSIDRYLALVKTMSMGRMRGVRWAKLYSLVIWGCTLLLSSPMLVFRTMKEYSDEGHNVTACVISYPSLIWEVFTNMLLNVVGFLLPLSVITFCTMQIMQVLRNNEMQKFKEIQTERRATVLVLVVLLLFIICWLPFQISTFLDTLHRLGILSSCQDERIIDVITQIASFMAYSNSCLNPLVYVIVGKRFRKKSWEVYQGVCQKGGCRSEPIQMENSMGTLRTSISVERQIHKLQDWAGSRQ
Experiment: [35S]GTPγS Binding Assay in CHO-hB2 Cell Membranes
Assay type: biochemical
Settings: bradykinin-stimulated [35S]GTPγS binding; for Functional Activity (% Basal): number in parentheses, concentration not given
Method: [^35S]GTPγS Binding Assay in CHO-hB2Cell Membranes
CHO-hB2 cell membranes were purchased from Receptor Biology, Inc. (Baltimore, Md.). 10 mg/mL of membrane protein was suspended in 10 mM TRIS-HC pH 7.2, 2 mM EDTA, 10% sucrose.
Membranes were added into 15 mL ice cold binding assay buffer. The assay buffer contained 50 mM HEPES, pH 7.6, 5 mM MgCl2, 100 mM NaCl, 1 mM DTT and 1 mM EDTA. The membrane suspension was homogenized twice with a Polytron and centrifuged at 3000 rpm for 10 min. The supernatant was then centrifuged at 18,000 rpm for 20 min. The pellet was saved in a tube and resuspended.
The pellet membranes (40 μg/mL) were preincubated with SPA (scintillation proximity assay) beads (20 mg/mL) at 25 C. ° for 45 min in the assay buffer. The SPA beads (5 mg/mL) coupled with membranes (10 μg/mL) were then incubated with 0.5 nM [^35S]GTPγS in the same HEPES buffer containing 50 μM GDP in total volume of 200 μL. Bradykinin was used to stimulate [^35S]GTPγS binding. Varying concentrations of drugs were incubated with bradykinin to inhibit bradykinin-stimulated [^35S]GTPγS binding. The basal binding was tested in the absence of bradykinin and no specific binding was tested in the present 10 μM unlabeled GTPγS. The radioactivity was quantified on a Packard Top Count, and calculated.
% of Basal=(stimulated binding−non specific binding)/(basal binding−non specific binding)×100.

SMILES	Functional Activity (word result)	Functional Activity (% Basal)
CC(=O)Nc1ccc(C=CC(=O)NC[C@H]2CCCN2c2ccc(C)c(COc3cccc4ccc(C)nc34)c2C)cn1 [Compound 112, 3-(6-Acetylamino-pyridin-3-yl)-N-{1-[2,4-dimethyl-3-(2-methyl-quinolin-8-yloxymethyl)-phenyl]-pyrrolidin-2-(R)-ylmethyl}-acrylamide.]	Antagonist	59
CCN(C(=O)Cc1ccc(C(=O)c2ccc(C#N)cc2)n1C)c1ccc(Cl)c(COc2cccc3ccc(C)nc23)c1Cl [Compound 18]	No effect	1
Cc1ccc2cccc(OCc3c(Cl)ccc(N(C)C(=O)Cc4ccc(C(=O)c5ccc(C#N)cc5)n4CC4CC4)c3Cl)c2n1 [Compound 11, 2-[5-(4-Cyano-benzoyl)-1-cyclopropylmethyl-1H-pyrrol-2-yl]-N-[2,4-dichloro-3-(2-methyl-quinolin-8-yloxymethyl)-phenyl]-N-methyl-acetamide]	No effect	1
Cc1ccc2cccc(OCc3c(Cl)ccc(N(C)C(=O)Cc4ccc(C(=O)c5ccc(S(C)(=O)=O)cc5)n4C)c3Cl)c2n1 [Compound 75, N-[2,4-Dichloro-3-(2-methyl-quinolin-8-yloxymethyl)-phenyl]-2-[5-(4-methanesulfonyl-benzoyl)-1-methyl-1H-pyrrol-2-yl]-N-methyl-acetamide]	Antagonist	–
Cc1ccc2cccc(OCc3c(C)ccc(N(C)C(=O)CCc4ccc(C(=O)c5cccs5)n4C)c3C)c2n1 [Compound 80]	Weak antagonist	–
Cc1ccc2cccc(OCc3c(Cl)ccc(N(C)C(=O)Cc4ccc(C(=O)CN5CCC(c6ccccc6)CC5)n4C)c3Cl)c2n1 [Compound 58, N-[2,4-Dichloro-3-(2-methyl-quinolin-8-yloxymethyl)-phenyl]-N-methyl-2-{1-methyl-5-[2-(4-phenyl-piperidin-1-yl)-acetyl]-1H-pyrrol-2-yl}-acetamide]	No effect	1
COC(=O)c1ccc(C(=O)c2ccc(CC(=O)N(C)c3ccc(Cl)c(COc4cccc5ccc(C)nc45)c3Cl)n2C)cc1 [Compound 64]	Antagonist	–
Cc1ccc2cccc(OCc3c(Cl)ccc(N(C)C(=O)Cc4ccc(C(=O)c5ccc([S+](C)[O-])cc5)n4C)c3Cl)c2n1 (stereo not shown) [Compound 73, N-[2,4-Dichloro-3-(2-methyl-quinolin-8-yloxymethyl)-phenyl]-2-[5-(4-methanesulfinyl-benzoyl)-1-methyl-1H-pyrrol-2-yl]-N-methyl-acetamide]	Antagonist	–
Cc1ccc2cccc(OCc3c(Cl)ccc(N(C)C(=O)Cc4cc(C(=O)c5ccc(C#N)cc5)n(C)c4)c3Cl)c2n1 [Compound 4, 2-[5-(4-Cyano-benzoyl)-1-methyl-1H-pyrrol-3-yl]-N-[2,4-dichloro-3-(2-methyl-quinolin-8-yloxymethyl)-phenyl]-N-methyl-acetamide]	Antagonist	–
Cc1ccc2cccc(OCc3c(Cl)ccc(N(C)C(=O)Cc4ccc(C(=O)c5ccc(C#N)cc5)n4CCC(C)C)c3Cl)c2n1 [Compound 13]	No effect	1
Cc1ccc2cccc(OCc3c(Cl)ccc(N(C)C(=O)Cc4ccc(C(=O)c5ccc([N+](=O)[O-])cc5)n4C)c3Cl)c2n1 [Compound 63]	Antagonist	–
COc1ccc(C(=O)c2ccc(CC(=O)N(C)c3ccc(Cl)c(COc4cccc5ccc(C)nc45)c3Cl)[nH]2)cc1 [Compound 5]	Antagonist	–
Cc1ccc2cccc(OCc3c(C)ccc(N(C)C(=O)Cc4ccc(C(=O)c5ccc(C#N)cc5)n4C)c3C)c2n1 [Compound 79, 2-[5-(4-Cyano-benzoyl)-1-methyl-1H-pyrrol-2-yl]-N-[2,4-dimethyl-3-(2-methyl-quinolin-8-yloxymethyl)-phenyl]-N-methyl-acetamide]	Antagonist	100
